Assay results published in paper PMC11783601, “Analogue-Sensitive Inhibition of Histone Demethylases Uncovers Member-Specific Function in Ribosomal Protein Synthesis” (Journal of the American Chemical Society, 2025).

Experiments:
Format in all cases: biochemical
[1] = molecular target: T1, PHD2 (EGLN1) (Homo sapiens, UniProt Q9GZT9); assay: MALDI-based assay EGLN1 prolyl hydroxylation of peptide; conditions: MALDI-TOF, peptide substrate
T1 construct: Full length EGLN1 construct plasmid with; TEV-His (N); host or cells: E. coli BL21 (DE3)
T1 sequence (Q9GZT9 whole entry): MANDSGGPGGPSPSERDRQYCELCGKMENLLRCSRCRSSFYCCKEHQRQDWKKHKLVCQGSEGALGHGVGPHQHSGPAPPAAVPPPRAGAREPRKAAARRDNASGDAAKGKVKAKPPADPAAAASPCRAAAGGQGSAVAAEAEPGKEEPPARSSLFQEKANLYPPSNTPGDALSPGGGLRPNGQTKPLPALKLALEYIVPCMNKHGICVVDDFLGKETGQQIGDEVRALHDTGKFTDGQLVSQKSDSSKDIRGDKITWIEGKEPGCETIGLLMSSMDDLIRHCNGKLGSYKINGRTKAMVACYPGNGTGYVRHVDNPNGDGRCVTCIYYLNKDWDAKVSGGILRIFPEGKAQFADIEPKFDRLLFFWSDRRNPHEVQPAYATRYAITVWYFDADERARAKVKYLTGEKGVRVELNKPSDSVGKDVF
Protocol: demethylation events on the peptide. The percent peak area was calculated, and the K27me2, me1,
and me0 peaks were summed to get the relative percent demethylated peptide.
(§1) MALDI-based assay for FTO and ALKBH5: To determine the enzymatic activity of FTO and
(§2) ALKBH5 recombinant proteins in the presence of L-Leu NOG 6, a previously published methods
(§3) were utilized.15, 18 Briefly,10 µM of each protein was incubated in the presence of 10 µM RNA
(§4) 7.5, 150 mM KCl, 50 µM L-Leu NOG or equivalent volume of water in 10 µL aliquots. The
(§5) samples were placed on ice for 10 minutes followed by addition of 200 µM 2OG or equivalent
(§6) volume of water. After incubation at 37 °C for 30 minutes, samples were desalted with 3 µL of BT
(§7) spotted on a MALDI plate with 1uL sample and 1uL of 3-HPA matrix and monitored with Bruker
(§8) FlexControl in the reflectron negative mode and analyzed on Bruker FlexAnalysis software.
Relative inhibition was monitored via assessing percent product decrease with L-Leu NOG
MALDI-based assay for C14orf169 (NO66) and MINA: To monitor the enzymatic activity of […]
1 µL S-DHB matrix were spotted on a MALDI plate and monitored with Bruker FlexControl in
the reflectron positive mode and analyzed on Bruker FlexAnalysis software. […]
was monitored via assessing percent product decrease with L-Leu NOG samples compared to no […]
monitored following a reported method.19 To monitor the enzymatic activity of EGLN1 and 3 […]

[2] = molecular target: T2, FTO (Homo sapiens, UniProt Q9C0B1); assay: MALDI-based assay on m6A RNA substrate; conditions: MALDI-TOF, m6A oligonucleotide
T2 construct: we recombinantly expressed the catalytic domains of 12 wild type dioxygenases; His (N); made in house; host or cells: E. coli BL21 (DE3)
T2 sequence (Q9C0B1 32-327 limits assumed): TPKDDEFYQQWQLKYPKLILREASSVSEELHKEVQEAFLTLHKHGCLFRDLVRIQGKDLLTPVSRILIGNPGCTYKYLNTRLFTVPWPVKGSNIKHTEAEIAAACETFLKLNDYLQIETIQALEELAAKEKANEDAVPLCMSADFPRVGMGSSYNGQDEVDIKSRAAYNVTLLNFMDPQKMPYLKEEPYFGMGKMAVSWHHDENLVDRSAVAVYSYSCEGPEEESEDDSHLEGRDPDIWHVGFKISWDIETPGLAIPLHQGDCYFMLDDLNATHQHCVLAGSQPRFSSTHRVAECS
Protocol: as §1, §2, §3, §4, §5, §6, §7, §8

[3] = molecular target: T3, ALKBH5 (Homo sapiens, UniProt Q6P6C2); assay: MALDI-based assay on m6A RNA substrate; conditions: MALDI-TOF, m6A oligonucleotide
T3 construct: we recombinantly expressed the catalytic domains of 12 wild type dioxygenases; His; made in house; host or cells: E. coli BL21 (DE3)
T3 sequence (Q6P6C2 67-394 limits assumed): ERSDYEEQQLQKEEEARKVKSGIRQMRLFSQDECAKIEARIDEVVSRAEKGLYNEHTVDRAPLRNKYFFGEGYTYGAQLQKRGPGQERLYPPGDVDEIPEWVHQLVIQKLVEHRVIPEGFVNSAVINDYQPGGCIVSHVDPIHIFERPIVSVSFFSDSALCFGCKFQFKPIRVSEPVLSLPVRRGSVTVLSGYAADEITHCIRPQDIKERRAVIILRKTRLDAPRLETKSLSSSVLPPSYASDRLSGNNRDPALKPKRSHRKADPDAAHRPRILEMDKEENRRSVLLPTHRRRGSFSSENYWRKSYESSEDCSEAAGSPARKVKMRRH
Protocol: as §1, §2, §3, §4, §5, §6, §7, §8

CC(C)CC(NC(=O)C(=O)O)C(=O)O (stereo not drawn) [compound 6, N-oxalyl leucine]
No inhibition: inhibition of PHD2 [1] | inhibition of FTO [2] | inhibition of ALKBH5 [3]
